Experimental findings from patent US20060252807A1, “Novel ortho-terphenyl inhibitors of p38 kinase and methods of treating inflammatory disorders” (Kalypsys, Inc., priority 2005, published 2006) are described below.

Where only a bound is given, the exact number is not on record here.

The assay addresses T1, active p38 alpha enzyme (Upstate Biotechnology) (Homo sapiens, UniProt Q16539).
T1 construct: purchased Upstate Biotechnology
In words: p38α biochemical assay (ATP turnover, luminescent detection, Cambrex PKlight). Conditions: p38α kinase; Table 1 Biological Activity. The gist of the method: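 Luminescent ATP-depletion readout measures total ATP turnover by p38α phosphorylating whole MapkapK2 protein. ATP 1.4 uM final; 30C, 2 h. Compounds delivered from DMSO.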

T1 sequence (Q16539 whole entry): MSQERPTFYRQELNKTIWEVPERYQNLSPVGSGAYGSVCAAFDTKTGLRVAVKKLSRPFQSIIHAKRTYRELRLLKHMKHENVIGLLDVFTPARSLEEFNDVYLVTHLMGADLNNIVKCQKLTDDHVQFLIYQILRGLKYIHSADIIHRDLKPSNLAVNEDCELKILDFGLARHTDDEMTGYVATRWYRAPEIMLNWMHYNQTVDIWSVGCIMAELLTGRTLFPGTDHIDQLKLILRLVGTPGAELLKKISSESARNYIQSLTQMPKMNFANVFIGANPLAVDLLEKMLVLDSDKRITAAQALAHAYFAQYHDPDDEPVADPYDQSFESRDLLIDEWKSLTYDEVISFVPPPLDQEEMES

A word on the IC50: it is the concentration needed to halve the response being measured. Lower therefore signals greater potency. For `Cc1ccc([C@@H](C)NC(=O)c2csc(-c3sc(C)nc3-c3ccc(F)cc3)n2)cc1` [Example 1771], the IC50 was greater than 1000 nM.

As to `Cc1nc(-c2ccc(F)cc2)c(-c2nc(C(=O)NCC(C)c3ccccc3)cs2)s1` (centres unmarked) [Example 1772], the IC50 is no more than 1000 nM.

`Cc1nc(-c2ccc(F)cc2)c(-c2nc(C(=O)NCC(C)c3ccccc3)cs2)s1` (centres unmarked) [Example 1773] registered an IC50 greater than 1000 nM.

Regarding `Cc1nc(-c2ccc(F)cc2)c(-c2nc(C(=O)NCCCc3ccccc3)cs2)s1` [Example 1774], the IC50 is greater than 1000 nM.

For the compound `Cc1nc(-c2ccc(F)cc2)c(-c2nc(C(=O)NCc3ccc(C)c(C)c3)cs2)s1` [Example 1775], the IC50 is no more than 1000 nM.

Turning to `Cc1nc(-c2ccc(F)cc2)c(-c2nc(C(=O)NC(C)Cc3ccncc3)cs2)s1` (centres unmarked) [Example 1776], the IC50 was greater than 1000 nM.

`Cc1nc(-c2ccc(F)cc2)c(-c2nc(C(=O)NCCc3ccc(O)cc3)cs2)s1` [Example 1777] registered an IC50 of no more than 1000 nM.

Take `Cc1nc(-c2ccc(F)cc2)c(-c2nc(C(=O)NCCOc3ccccc3)cs2)s1` [Example 1778]: the IC50 is no more than 1000 nM.

`COc1ccccc1CNC(=O)c1csc(-c2sc(C)nc2-c2ccc(F)cc2)n1` [Example 1779] showed an IC50 of no more than 1000 nM.

Consider `COc1ccc(CNC(=O)c2csc(-c3sc(C)nc3-c3ccc(F)cc3)n2)cc1` [Example 1780], for which the IC50 is no more than 1000 nM.

`COc1cccc(CNC(=O)c2csc(-c3sc(C)nc3-c3ccc(F)cc3)n2)c1` [Example 1781] showed an IC50 of no more than 1000 nM.

Compound `Cc1nc(-c2ccc(F)cc2)c(-c2nc(C(=O)NCCc3ccc(F)cc3)cs2)s1` [Example 1782] displayed an IC50 greater than 1000 nM.

`Cc1nc(-c2ccc(F)cc2)c(-c2nc(C(=O)NCCc3ccccc3F)cs2)s1` [Example 1783] came in with an IC50 of no more than 1000 nM.

As for `Cc1nc(-c2ccc(F)cc2)c(-c2nc(C(=O)NCCc3cccc(F)c3)cs2)s1` [Example 1784], the IC50 was no more than 1000 nM.

On to `Cc1nc(-c2ccc(F)cc2)c(-c2nc(C(=O)NCc3cccc(Cl)c3)cs2)s1` [Example 1785], for which the IC50 is no more than 1000 nM.

Regarding `Cc1nc(-c2ccc(F)cc2)c(-c2nc(C(=O)NCc3ccccc3Cl)cs2)s1` [Example 1786], the IC50 is no more than 1000 nM.

In turn, `Cc1nc(-c2ccc(F)cc2)c(-c2nc(C(=O)NCc3ccc(Cl)cc3)cs2)s1` [Example 1787] displayed an IC50 of no more than 1000 nM.

Compound `Cc1nc(-c2ccc(F)cc2)c(-c2nc(C(=O)NCCCN3CCCC3=O)cs2)s1` [Example 1788] displayed a half-maximal inhibitory concentration (IC50) of no more than 1000 nM.

As to `Cc1nc(-c2ccc(F)cc2)c(-c2nc(C(=O)NCc3ccc(F)cc3F)cs2)s1` [Example 1789], the IC50 is no more than 1000 nM.

For `Cc1nc(-c2ccc(F)cc2)c(-c2nc(C(=O)NCc3ccc(F)c(F)c3)cs2)s1` [Example 1790], the concentration for half-maximal inhibition (IC50) was no more than 1000 nM.

As for `Cc1nc(-c2ccc(F)cc2)c(-c2nc(C(=O)NCc3cc(F)cc(F)c3)cs2)s1` [Example 1791], the IC50 was no more than 1000 nM.

Turning to `Cc1nc(-c2ccc(F)cc2)c(-c2nc(C(=O)NCCCN3CCOCC3)cs2)s1` [Example 1792], the IC50 is no more than 1000 nM.

In turn, `Cc1nc(-c2ccc(F)cc2)c(-c2nc(C(=O)NCCN(C(C)C)C(C)C)cs2)s1` [Example 1793] came in with an IC50 greater than 1000 nM.

In turn, `Cc1nc(-c2ccc(F)cc2)c(-c2nc(C(=O)NC(C)CCc3ccccc3)cs2)s1` (centres unmarked) [Example 1794] gave a 50% inhibitory concentration (IC50) greater than 1000 nM.

Turning to `Cc1nc(-c2ccc(F)cc2)c(-c2nc(C(=O)NCc3ccc(C(C)C)cc3)cs2)s1` [Example 1795], the half-inhibitory concentration (IC50) is greater than 1000 nM.

Turning to `Cc1nc(-c2ccc(F)cc2)c(-c2nc(C(=O)NCc3ccc4c(c3)OCO4)cs2)s1` [Example 1796], the IC50 was no more than 1000 nM.

For `COc1cccc(CCNC(=O)c2csc(-c3sc(C)nc3-c3ccc(F)cc3)n2)c1` [Example 1797], the 50% inhibitory concentration (IC50) is no more than 1000 nM.

As for `Cc1nc(-c2ccc(F)cc2)c(-c2nc(C(=O)N[C@H](CO)Cc3ccccc3)cs2)s1` [Example 1798], the IC50 is no more than 1000 nM.

For the compound `COc1ccc(CCNC(=O)c2csc(-c3sc(C)nc3-c3ccc(F)cc3)n2)cc1` [Example 1799], the IC50 was no more than 1000 nM.

`COc1ccccc1CCNC(=O)c1csc(-c2sc(C)nc2-c2ccc(F)cc2)n1` [Example 1800] registered an IC50 of no more than 1000 nM.

In the case of `CCOc1ccccc1CNC(=O)c1csc(-c2sc(C)nc2-c2ccc(F)cc2)n1` [Example 1801], the IC50 was no more than 1000 nM.

In turn, `Cc1nc(-c2ccc(F)cc2)c(-c2nc(C(=O)NCCc3ccccc3Cl)cs2)s1` [Example 1802] showed a concentration for half-maximal inhibition (IC50) of no more than 1000 nM.

`Cc1nc(-c2ccc(F)cc2)c(-c2nc(C(=O)NCCc3ccc(Cl)cc3)cs2)s1` [Example 1803] registered a concentration for half-maximal inhibition (IC50) of no more than 1000 nM.

Turning to `Cc1nc(-c2ccc(F)cc2)c(-c2nc(C(=O)NCCc3cccc(Cl)c3)cs2)s1` [Example 1804], the IC50 was no more than 1000 nM.

`Cc1nc(-c2ccc(F)cc2)c(-c2nc(C(=O)NC3CC(C)(C)NC(C)(C)C3)cs2)s1` [Example 1805] yielded an IC50 greater than 1000 nM.

The compound `CCN(CC)CCCC(C)NC(=O)c1csc(-c2sc(C)nc2-c2ccc(F)cc2)n1` (centres unmarked) [Example 1806] registered a half-inhibitory concentration (IC50) greater than 1000 nM.

In turn, `Cc1nc(-c2ccc(F)cc2)c(-c2nc(C(=O)NCc3ccc(F)c(Cl)c3)cs2)s1` [Example 1807] showed an IC50 of no more than 1000 nM.

As to `Cc1nc(-c2ccc(F)cc2)c(-c2nc(C(=O)NCCNC(=O)OC(C)(C)C)cs2)s1` [Example 1808], the half-maximal inhibitory concentration (IC50) was no more than 1000 nM.

`Cc1nc(-c2ccc(F)cc2)c(-c2nc(C(=O)NCCc3c[nH]c4ccccc34)cs2)s1` [Example 1809] came in with an IC50 of no more than 1000 nM.

In turn, `Cc1nc(-c2ccc(F)cc2)c(-c2nc(C(=O)NCc3ccc(C(C)(C)C)cc3)cs2)s1` [Example 1810] showed a concentration for half-maximal inhibition (IC50) greater than 1000 nM.

For `Cc1nc(-c2ccc(F)cc2)c(-c2nc(C(=O)NCCCN(C)c3ccccc3)cs2)s1` [Example 1811], the IC50 is no more than 1000 nM.

In turn, `Cc1nc(-c2ccc(F)cc2)c(-c2nc(C(=O)NCC3(O)CCCCC3)cs2)s1` [Example 1812] came in with an IC50 of no more than 1000 nM.

The compound `COc1cc(CNC(=O)c2csc(-c3sc(C)nc3-c3ccc(F)cc3)n2)cc(OC)c1` [Example 1813] showed an IC50 of no more than 1000 nM.

`COc1ccc(CNC(=O)c2csc(-c3sc(C)nc3-c3ccc(F)cc3)n2)cc1OC` [Example 1814] showed an IC50 of no more than 1000 nM.

As for `Cc1nc(-c2ccc(F)cc2)c(-c2nc(C(=O)NCC(=O)c3ccccc3)cs2)s1` [Example 1815], the concentration for half-maximal inhibition (IC50) is greater than 1000 nM.

Regarding `CCOC(=O)N1CCC(NC(=O)c2csc(-c3sc(C)nc3-c3ccc(F)cc3)n2)CC1` [Example 1816], the 50% inhibitory concentration (IC50) is greater than 1000 nM.

As for `Cc1nc(-c2ccc(F)cc2)c(-c2nc(C(=O)NCCCNC(=O)OC(C)(C)C)cs2)s1` [Example 1817], the half-maximal inhibitory concentration (IC50) was no more than 1000 nM.

On to `Cc1nc(-c2ccc(F)cc2)c(-c2nc(C(=O)NCc3ccc(C(F)(F)F)cc3)cs2)s1` [Example 1818], for which the IC50 is no more than 1000 nM.

On to `Cc1nc(-c2ccc(F)cc2)c(-c2nc(C(=O)NCc3cccc(C(F)(F)F)c3)cs2)s1` [Example 1819], for which the IC50 was no more than 1000 nM.

As to `Cc1nc(-c2ccc(F)cc2)c(-c2nc(C(=O)NCc3ccc(Cl)c(Cl)c3)cs2)s1` [Example 1820], the IC50 was no more than 1000 nM.

Consider `Cc1nc(-c2ccc(F)cc2)c(-c2nc(C(=O)NCc3ccc(Cl)cc3Cl)cs2)s1` [Example 1821], for which the IC50 was no more than 1000 nM.

The compound `Cc1nc(-c2ccc(F)cc2)c(-c2nc(C(=O)NC3CCN(Cc4ccccc4)C3)cs2)s1` (centres unmarked) [Example 1822] had an IC50 of no more than 1000 nM.

For the compound `COc1ccc(OC)c(CCNC(=O)c2csc(-c3sc(C)nc3-c3ccc(F)cc3)n2)c1` [Example 1823], the IC50 is no more than 1000 nM.

Turning to `Cc1nc(-c2ccc(F)cc2)c(-c2nc(C(=O)NCc3ccc(N(C)C)cc3)cs2)s1` [Example 1824], the IC50 was no more than 1000 nM.

As to `COc1ccc(CNC(=O)c2csc(-c3sc(C)nc3-c3ccc(F)cc3)n2)cc1O` [Example 1825], the IC50 was no more than 1000 nM.

As for `Cc1nc(-c2ccc(F)cc2)c(-c2nc(C(=O)NC3CCN(Cc4ccccc4)CC3)cs2)s1` [Example 1826], the IC50 was greater than 1000 nM.

In the case of `Cc1nc(-c2ccc(F)cc2)c(-c2nc(C(=O)NCc3ccccc3OC(F)(F)F)cs2)s1` [Example 1827], the IC50 was no more than 1000 nM.

As for `Cc1nc(-c2ccc(F)cc2)c(-c2nc(C(=O)NCCc3ccc(S(N)(=O)=O)cc3)cs2)s1` [Example 1828], the IC50 was no more than 1000 nM.

For `COc1ccc(C(=O)CNC(=O)c2csc(-c3sc(C)nc3-c3ccc(F)cc3)n2)cc1` [Example 1829], the IC50 was greater than 1000 nM.

In turn, `Cc1nc(-c2ccc(F)cc2)c(-c2nc(C(=O)NCCc3ccc4c(c3)OCO4)cs2)s1` [Example 1830] had an IC50 of no more than 1000 nM.

`Cc1nc(-c2ccc(F)cc2)c(-c2nc(C(=O)NCCC(c3ccccc3)c3ccccc3)cs2)s1` [Example 1831] had an IC50 greater than 1000 nM.

Consider `Cc1ccc(S(=O)(=O)NCCNC(=O)c2csc(-c3sc(C)nc3-c3ccc(F)cc3)n2)cc1` [Example 1832], for which the IC50 was no more than 1000 nM.

The compound `Cc1nc(-c2ccc(F)cc2)c(-c2nc(C(=O)N(C)C)cs2)s1` [Example 1834] displayed an IC50 greater than 1000 nM.

Turning to `CCN(C)C(=O)c1csc(-c2sc(C)nc2-c2ccc(F)cc2)n1` [Example 1835], the half-maximal inhibitory concentration (IC50) is greater than 1000 nM.

As for `C#CCN(C)C(=O)c1csc(-c2sc(C)nc2-c2ccc(F)cc2)n1` [Example 1836], the IC50 was greater than 1000 nM.

In turn, `CCN(CC)C(=O)c1csc(-c2sc(C)nc2-c2ccc(F)cc2)n1` [Example 1837] displayed an IC50 greater than 1000 nM.

Consider `CCCN(C)C(=O)c1csc(-c2sc(C)nc2-c2ccc(F)cc2)n1` [Example 1838], for which the IC50 is greater than 1000 nM.

`Cc1nc(-c2ccc(F)cc2)c(-c2nc(C(=O)N(C)CCO)cs2)s1` [Example 1839] yielded an IC50 greater than 1000 nM.

For `Cc1nc(-c2ccc(F)cc2)c(-c2nc(C(=O)N(C)CCC#N)cs2)s1` [Example 1840], the IC50 was greater than 1000 nM.

`Cc1nc(-c2ccc(F)cc2)c(-c2nc(C(=O)N3CCOCC3)cs2)s1` [Example 1841] had an IC50 greater than 1000 nM.

Compound `Cc1nc(-c2ccc(F)cc2)c(-c2nc(C(=O)N(C)CC(C)C)cs2)s1` [Example 1842] came in with an IC50 greater than 1000 nM.
